# In publication PMC10893061, “Novel 2,5-Diketopiperazines with In Vitro Activities against Protozoan Parasites of Tropical Diseases” (Pharmaceuticals, 2024):
# Where two headings read alike, the source gives them in different places.
# Key:
# [1] = test system: Leishmania infantum (MHOM/BR/1974/PP75) in THP-1 macrophages; assay: Anti-Leishmania infantum activity assay (infected THP-1 macrophages, red fluorescence); assay type: cell-based; conditions: for Status: L. infantum, activity status from IC50 and SI; for IC50: Leishmania infantum, L. infantum in THP-1 macrophages, 72 h
# Procedure: (§1) Their half-maximum cytotoxic concentrations (CC50) and their selectivity indices (SI), obtained as the ratio of the cytotoxic concentration against the bioactive concentration are shown in Table 2. Theoretically, the higher the SI value, the greater the effectiveness for the target and the lower the toxicity of the compound, characterizing a potentially safe and selective drug.
# Cells derived from the human monocytic strain THP-1 were cultured in complete Rowell Park Memorial Institute (RPMI)-1640 medium (supplemented with 10% fetal bovine serum, 100 U/mL penicillin, and 100 μg/mL streptomycin). Monocytes were differentiated into macrophages by the addition of 20 ng/mL phorbol myristate acetate (PMA). […] The IC50 values were determined by non-linear regression using a variable slope model (log[concentration] vs. growth inhibition) with the GraphPad Prism v8.2.0 (Boston, MA, USA) software. Controls with uninfected cells, untreated infected cells, infected cells treated with amphotericin B at 0.25 μM (positive control) or DMSO 1% were used. Quadruplicates were run in the same plate, and the experiments were repeated at least once.
# [2] = test system: T. cruzi Tulahuen strain in L929 cells; assay: Anti-Trypanosoma cruzi activity assay (infected L929 cells, beta-galactosidase reporter); assay type: cell-based; conditions: for Status: T. cruzi, activity status from IC50 and SI; for IC50: Trypanosoma cruzi, T. cruzi Tulahuen in L929 cells, 96 h
# Procedure: as §1
# The in vitro anti-T. cruzi activity was evaluated on L929 cells (mouse fibroblasts) infected with Tulahuen strain of the parasite expressing the Escherichia coli β-galactosidase as reporter gene according to the method described previously. Briefly, four thousand L929 cells were added to each well of a 96-well microtiter plate. After an overnight incubation, a 10 fold excess of trypomastigotes were added to the cells, incubated for 2 h, then replaced with 200 μL of fresh medium and incubated for additional 48 h to establish the infection. For IC50 determination, the cells were exposed to each synthesized compound at serial decreasing dilutions and the plate was incubated for 96 h. Afterwards, 50 μL of 500 μM chlorophenol red beta-D-galactopyranoside (CPRG) in 0.5% Nonidet P40 was added to each well, and the plate incubated for 16 to 20 h, after which the absorbance at 570 nm was measured. Controls with uninfected cells, untreated infected cells, infected cells treated with benznidazole at 3.8 μM (positive control) or 1% DMSO were used. The results were expressed as the percentage of T. cruzi growth inhibition in compound tested cells as compared to the infected cells and untreated cells. The IC50 values were calculated by linear interpolation. Quadruplicates were run in the same plate, and the experiments were repeated at least once.
# (§2) IC50 over T. cruzi and L929 cells were determined by linear interpolation and the selectivity index (SI) was calculated by the ratio of CC50 L929 cells/ IC50 T. cruzi.
# [3] = Cytotoxicity on THP-1 derived macrophages (AlamarBlue); assay type: cell-based; conditions: human, THP-1 cells differentiated into macrophages, THP-1 macrophages
# Procedure: For the cytotoxicity assay, human monocytic THP-1 cells were differentiated into macrophages in 96-well microtiter plates for 72 h, as described above. The medium was then replaced, and the cells were exposed to the compounds at increasing concentrations starting at IC50 value for each Leishmania spp. line. After 72 h of incubation with the compounds, AlamarBlue™ was added and the absorbance at 570 and 600 nm was measured after 4 h. Controls with untreated and DMSO 1%-treated cells were run in parallel. The results were expressed as the percentual difference in the reduction between treated and untreated cells. The compound concentration that inhibits 50% of the THP-1 cell viability (CC50) was determined. The CC50 values were determined by non-linear regression using a variable slope model (log(concentration) vs. growth inhibition) with the GraphPad Prism v8.2.0 (CA, USA) software. Triplicates were run in the same plate and the experiments were repeated at least once.
# [4] = test system: P. falciparum chloroquine-resistant and mefloquine-sensitive W2 clone; assay: Anti-Plasmodium falciparum activity assay (SYBR, erythrocytic asexual stages); assay type: cell-based; conditions: for Status: P. falciparum, activity status from IC50 and SI
# Procedure: In vitro assay with P. falciparum culture were performed as described previously. […] The activity was measured using the SYBR assay with the parasite suspension (0.5% parasitemia and 2% hematocrit) with minor modifications. The test compounds, in serial dilutions, were incubated in “U” bottom 96-wells plates. After 48 h at 37 °C, the culture supernatant was removed and replaced by 100 µL of lysis buffer solution [Tris (20 mM; pH 7.5), EDTA (5 mM), saponin (0.008%; wt/vol), and Triton X 100 (0.08%; vol/vol)] followed by addition of 0.2 µL/mL SYBR Safe (Sigma-Aldrich, Carlsbad, CA, USA). The plate content was transferred to a flat bottom plate and incubated in the dark for 30 min. The plate was read in a fluorometer (Synergy H4 Hibrid Reader, Biotek) with excitation at 485 nm and 535 nm of emission. In all tests, the compound activities were expressed by the 50% inhibitory concentration of the parasite growth (IC50) when compared to the drug-free controls and estimated using the curve-fitting software Origin 8.0 (OriginLab Corporation, Northampton, MA, USA).
# [5] = Cytotoxicity, neutral red uptake assay on BGM cells; assay type: cell-based; conditions: BGM monkey kidney cells
# Procedure: The BGM cells were incubated with 20 µL of the drugs at different concentrations (≤1000 µg/mL) for 24 h in a 5% CO2 at 37 °C. The neutral red uptake assay was used to evaluate the lysosomal integrity and distinguishes live cells from dead by its ability to incorporate the dye. Briefly, to each well was added 0.2 mL medium containing 50 µg/mL of neutral red solution. The plate was incubated for another 3 h at 37 °C to allow for the uptake of the vital dye into the lysosomes of viable uninjured cells. After removal of medium, 200 µL of a mixture of 0.5% formaldehyde-1% CaCl2 was added to the cells and incubated by 5 min. The supernatant was removed and 100 µL of a solution of 1% acetic acid-50% ethanol was added to each well to extract the dye. After homogenization, the optical density of each well of the plate was measured using a 540 nm wavelength on a spectrophotometer. This absorbance has shown a linear relationship with the number of surviving cells. The cell viability was expressed as the percentage of control absorbance obtained from the untreated cells after subtracting the appropriate background.
# [6] = Cytotoxicity on L929 cells (AlamarBlue); assay type: cell-based; conditions: mouse, L929 mouse fibroblast cells
# Procedure: The medium was then replaced, and the cells were exposed to compounds at increasing concentrations starting at IC50 value for T. cruzi. After 96 h of incubation with the compounds, AlamarBlue^TM was added and the absorbance at 570 and 600 nm was measured after 4–6 h. Controls with untreated and DMSO 1%-treated cells were run in parallel. The results were expressed as the percent difference in the reduction between treated and untreated cells. The compound concentration that inhibits 50% of the L929 cell viability (CC50) was determined. Quadruplicates were run in the same plate and the experiments were repeated at least once.
# as §2
# [7] = test system: Plasmodium; set-up: method as in PMID 33446930, PMID 33307212; conditions: read-out: IC50 plasmodicidal in vitro activity; cited from earlier work
# [8] = test system: Plasmodium; set-up: method as in PMID 33446930, PMID 33307212; conditions: 30mg/(kg × day), 4-day suppressive test; cited from earlier work
# [9] = test system: Plasmodium; set-up: method as in PMID 28223778; conditions: cited from earlier work
# [10] = test system: Plasmodium; set-up: method as in doi:10.1016/j.tetlet.2016.11.071; conditions: read-out: IC50 anti-plasmodial activity; cited from earlier work
# [11] = Plasmodium falciparum, W2, 48 h, P. falciparum W2 clone, 48 h, SYBR, read-out: IC50
# [12] = P. falciparum W2 clone, 48 h, SYBR
Compound,Status [2],IC50 [2],Status [4],"IC50 [4, 11]",CC50 at 24 h [5],CC50 at 96 h [6],other results
O=C1C(c2ccc(F)cc2)N(c2ccccc2)C(=O)CN1c1ccc(Cl)cc1 (stereo not drawn) [Compound 11],–,–,–,–,–,–,Status [1]: inactive; IC50 [1]: 38.2 ± 1.8 µg/mL
COc1ccc(N2CC(=O)N(c3ccc(OC)cc3)C(c3ccccc3)C2=O)cc1 (stereo not drawn) [Compound 13],inactive,22.3 ± 1.1 µg/mL,–,–,–,–,–
O=C1C(c2ccc(O)cc2)N(c2ccccc2)C(=O)CN1c1ccc(Cl)cc1 (stereo not drawn) [Compound 14],–,–,–,–,–,–,Status [1]: ACTIVE; IC50 [1]: 8.3 ± 0.2 µg/mL; CC50 at 72 h [3]: 611 ± 1 µg/mL
O=C1C(c2ccc(O)c(Br)c2)N(c2ccccc2)C(=O)CN1c1ccc(Cl)cc1 (stereo not drawn) [Compound 15],"toxic (selectivity index = CC50/IC50, values < 10 are considered toxic)",11.2 ± 6 µg/mL,"toxic (selectivity index = CC50/IC50, values < 10 are considered toxic)",14.9 ± 0.7 µg/mL,18.5 ± 3.4 µg/mL,81.8 µg/mL,–
O=C1C(c2ccccc2F)N(c2ccc(Cl)cc2)C(=O)CN1c1ccc(Cl)cc1 (stereo not drawn) [Compound 17],–,–,ACTIVE,< 10 µg/mL,139 ± 18.7 µg/mL,–,"IC50 [4, 12]: 9.5 ± 2.1 µg/mL"
O=C1C(c2ccccc2F)N(c2ccc(Br)cc2)C(=O)CN1c1ccc(Cl)cc1 (stereo not drawn) [Compound 19],–,–,ACTIVE,< 10 µg/mL,110 ± 11.3 µg/mL,–,"IC50 [4, 12]: 5.4 ± 1.7 µg/mL; IC50 ([4]; Plasmodium falciparum, W2, P. falciparum, corresponds to 5.4 µg/mL, read-out: IC50 (converted to µM)): 12.6 µM"
O=C1C(c2ccccc2F)N(c2ccc(F)cc2)C(=O)CN1c1ccc(Cl)cc1 (stereo not drawn) [Compound 20],"toxic (selectivity index = CC50/IC50, values < 10 are considered toxic)",15.4 ± 3 µg/mL,–,17.6 ± 1.3 µg/mL,9.4 ± 5.1 µg/mL,32.1 µg/mL,–
O=C1C(c2ccc(Cl)cc2)N(c2ccc(F)cc2)C(=O)CN1c1ccc(Cl)cc1 (stereo not drawn) [Compound 21],"toxic (selectivity index = CC50/IC50, values < 10 are considered toxic)",16.1 ± 2 µg/mL,inactive,≥ 50 µg/mL,–,16.8 µg/mL,–
O=C1C(c2c(F)cccc2Cl)N(c2ccccc2)C(=O)CN1c1ccc(Cl)cc1 (stereo not drawn) [Compound 22],ACTIVE,7.2 ± 0.9 µg/mL,–,–,–,> 400 µg/mL,–
CO[C@]1(CC(C)C)NC(=O)[C@](O)(Cc2ccccc2)NC1=O [Diatretol],–,–,–,–,–,–,IC50 [7]: 0.6 µM; growth inhibition of the parasite in vivo [8]: more than 50%
CC(C)C[C@@H]1NC(=O)[C@@H]2CCCN2C1=O [Gancidin W],–,–,–,–,–,–,"in vivo anti-malarial activity [9]: active, low-toxic"
Naseseazine C,–,–,–,–,–,–,IC50 [10]: 3.5 µM
